Experimental data reported in patent publication US6562849B1, “Amine derivative compounds” (Sankyo Company, Limited, priority 1999, dated 2003).
Structures can show the parent of a compound that is named as a salt.

Test system: KK mice (age 4-5 months) with diabetes
Test: Blood sugar lowering effect in KK mice with diabetes
Assay type: in vivo
Settings: Mus musculus, po, 72 h, powder diet containing 0.01% of the test compound for 3 days, plasma glucose vs control group, groups of 4 mice, read-out: Blood sugar decrease rate (%)
Source text: [Test Example] Blood Sugar Lowering Effect
Blood samples were collected from the caudal vein of KK mice (age 4-5 months) with diabetes followed by measurement of their blood sugar levels. Next, after assigning the mice to groups (of 4 mice each) so that the mean blood sugar levels of each group were the same, mouse laboratory powder diet (F-1, Funabashi Farms), prepared so as to contain 0.01% of the test compound, was given to the mice for 3 days. The groups of mice that were given test compound were designated as the drug dose groups. It should be noted that a group that was given laboratory diet not containing the test compound was designated as the control group. Blood samples were collected from the caudal vein of the mice 3 days later and the glucose concentration of the plasma obtained by centrifugal separation was measured with a glucose analyzer (Glucoloader, A & T Corp.). The mean decrease of blood sugar rate (%) was determined according to the following equation.
Blood sugar decrease rate (%)=(mean blood sugar value of control group−mean blood sugar value […] of drug dose group)×100/(blood sugar value of control group)

SMILES | inhibition in vivo at 0.01 % in diet [%]
Cn1c(COc2ccc(CC3SC(=O)NC3=O)cc2)nc2ccc(Oc3ccc(NC(=O)Nc4ccc(F)cc4F)cc3)cc21 (centres unmarked) [Example 5, 1-(2,4-Difluorophenyl)-3-(4-[2-[4-(2,4-dioxothiazolidin-5-ylmethyl)phenoxymethyl]-1-methyl-1H-benzimidazol-6-yloxy]phenyl)urea] | 36.2
CCNC(=O)Nc1ccc(Oc2ccc3nc(COc4ccc(CC5SC(=O)NC5=O)cc4)n(C)c3c2)cc1 (centres unmarked) [Example 12, 1-(4-[2-[4-(2,4-Dioxothiazolidin-5-ylmethyl)phenoxymethyl]-1-methyl-1H-benzimidazol-6-yloxy]phenyl)-3-ethylurea] | 56.1
CCCCCCN(C(C)=O)c1ccc(Oc2ccc3nc(COc4ccc(CC5SC(=O)NC5=O)cc4)n(C)c3c2)cc1 (centres unmarked) [Example 61, N-[4-[2-[4-(2,4-Dioxothiazolidin-5-ylmethyl)phenoxymethyl]-1-methyl-1H-benzimidazol-6-yloxy]phenyl]-N-n-hexylacetamide hydrochloride] | 54.2
Cn1c(COc2ccc(CC3SC(=O)NC3=O)cc2)nc2ccc(Oc3ccc(NC(=O)Nc4ccccc4)cc3)cc21 (centres unmarked) [Example 4, 1-(4-[2-[4-(2,4-Dioxothiazolidin-5-ylmethyl)phenoxymethyl]-1-methyl-1H-benzimidazol-6-yloxy]phenyl)-3-phenylurea] | 48.6
Cc1cc(Oc2ccc3nc(COc4ccc(CC5SC(=O)NC5=O)cc4)n(C)c3c2)cc(C)c1NC(=O)Nc1ccc([N+](=O)[O-])cc1 (centres unmarked) [Example 3, 1-(4-[2-[4-(2,4-Dioxothiazolidin-5-ylmethyl)phenoxymethyl]-1-methyl-1H-benzimidazol-6-yloxy]-2,6-dimethylphenyl)-3-(4-nitrophenyl)urea] | 49.9
Cn1c(COc2ccc(CC3SC(=O)NC3=O)cc2)nc2ccc(Oc3ccc(NC(=O)c4cccnc4)cc3)cc21 (centres unmarked) [Example 56, N-[4-[2-[4-(2,4-Dioxothiazolidin-5-ylmethyl)phenoxymethyl]-1-methyl-1H-benzimidazol-6-yloxy]phenyl]nicotinamide] | 63.6
Cc1cc(Oc2ccc3nc(COc4ccc(CC5SC(=O)NC5=O)cc4)n(C)c3c2)cc(C)c1NC(=S)Nc1ccc(Cl)cc1 (centres unmarked) [Example 2, 1-(4-Chlorophenyl)-3-(4-[2-[4-(2,4-dioxothiazolidin-5-ylmethyl)phenoxymethyl]-1-methyl-1H-benzimidazol-6-yloxy]-2,6-dimethylphenyl)thiourea] | 48.9
Cn1c(COc2ccc(CC3SC(=O)NC3=O)cc2)nc2ccc(Oc3ccc(NC(=O)c4ccccc4)cc3)cc21 (centres unmarked) [Example 53, N-[4-[2-[4-(2,4-Dioxothiazolidin-5-ylmethyl)phenoxymethyl]-1-methyl-1H-benzimidazol-6-yloxy]phenyl]benzamide] | 59.6
Cn1c(COc2ccc(CC3SC(=O)NC3=O)cc2)nc2ccc(Oc3ccc(CCNC(=O)Nc4ccc(F)cc4F)cc3)cc21 (centres unmarked) [Example 31, 1-(2,4-Difluorophenyl)-3-[2-(4-[2-[4-(2,4-dioxothiazolidin-5-ylmethyl)phenoxymethyl]-1-methyl-1H-benzimidazol-6-yloxy]phenyl)ethyl]urea] | 50.5
Cn1c(COc2ccc(CC3SC(=O)NC3=O)cc2)nc2ccc(Oc3ccc(NC(=O)c4cccc(Cl)c4)cc3)cc21 (centres unmarked) [Example 54, 3-Chloro-N-[4-[2-[4-(2,4-dioxothiazolidin-5-ylmethyl)phenoxymethyl]-1-methyl-1H-benzimidazol-6-yloxy]phenyl]benzamide] | 43.4
Cn1c(COc2ccc(CC3SC(=O)NC3=O)cc2)nc2ccc(OCCc3ccc(NC(=O)Nc4ccc(C(F)(F)F)cc4)cc3)cc21 (centres unmarked) [Example 37, 1-[4-(2-[2-[4-(2,4-Dioxothiazolidin-5-ylmethyl)phenoxymethyl]-1-methyl-1H-benzimidazol-6-yloxy]ethyl)phenyl]-3-[4-(trifluoromethyl)phenyl]urea] | 35.2
Cn1c(COc2ccc(CC3SC(=O)NC3=O)cc2)nc2ccc(Oc3ccc(NC(=S)NC4CCCCC4)cc3)cc21 (centres unmarked) [Example 9, 1-(4-[2-[4-(2,4-Dioxothiazolidin-5-ylmethyl)phenoxymethyl]-1-methyl-1H-benzimidazol-6-yloxy]phenyl)-3-(cyclohexyl)thiourea] | 47.1
Cn1c(COc2ccc(CC3SC(=O)NC3=O)cc2)nc2ccc(Oc3ccc(NC(=S)NCc4ccccc4)cc3)cc21 (centres unmarked) [Example 11, 1-Benzyl-3-(4-[2-[4-(2,4-dioxothiazolidin-5-ylmethyl)phenoxymethyl]-1-methyl-1H-benzimidazol-6-yloxy]phenyl)thiourea] | 32.9
Cn1c(COc2ccc(CC3SC(=O)NC3=O)cc2)nc2ccc(Oc3ccc4cccc(NC(=O)NCc5ccccc5)c4c3)cc21 (centres unmarked) [Example 45, 1-Benzyl-3-(7-[2-[4-(2,4-dioxothiazolidin-5-ylmethyl)phenoxymethyl]-1-methyl-1H-benzimidazol-6-yloxy]naphthalen-1-yl)urea] | 54.1
Cn1c(COc2ccc(CC3SC(=O)NC3=O)cc2)nc2ccc(Oc3ccc(NC(=O)c4ccc5ccccc5c4)cc3)cc21 (centres unmarked) [Example 60, N-[4-[2-[4-(2,4-Dioxothiazolidin-5-ylmethyl)phenoxymethyl]-1-methyl-1H-benzimidazol-6-yloxy]phenyl]naphthalene-2-carboxamide] | 49.8
Cn1c(COc2ccc(CC3SC(=O)NC3=O)cc2)nc2ccc(Oc3ccc(NC(=O)C4CCCC4)cc3)cc21 (centres unmarked) [Example 59, N-[4-[2-[4(2,4-dioxothiazolidin-5-ylmethyl)phenoxymethyl]-1-methyl-1H-benzimidazol-6-yloxy]phenyl]cyclopentanecarboxamide] | 56.8
Cn1c(COc2ccc(CC3SC(=O)NC3=O)cc2)nc2ccc(Oc3ccc(CCNC(=O)Nc4ccc(C(F)(F)F)cc4)cc3)cc21 (centres unmarked) [Example 34, 1-[2-(4-[2-[4-(2,4-Dioxothiazolidin-5-ylmethyl)phenoxymethyl]-1-methyl-1H-benzimidazol-6-yloxy]phenyl)ethyl]-3-[4-(trifluoromethyl)phenyl]urea hydrochloride] | 32.8
Cn1c(COc2ccc(CC3SC(=O)NC3=O)cc2)nc2ccc(Oc3ccc(NC(=O)c4ccncc4)cc3)cc21 (centres unmarked) [Example 55, N-[4-[2-[4-(2,4-Dioxothiazolidin-5-ylmethyl)phenoxymethyl]-1-methyl-1H-benzimidazol-6-yloxy]phenyl]isonicotinamide] | 53.8
CC(=O)Nc1ccc(Oc2ccc3nc(COc4ccc(CC5SC(=O)NC5=O)cc4)n(C)c3c2)cc1 (centres unmarked) [Example 52, N-[4-[2-[4-(2,4-Dioxothiazolidin-5-ylmethyl)phenoxymethyl]-1-methyl-1H-benzimidazol-6-yloxy]phenyl]acetamide] | 58.5
Cn1c(COc2ccc(CC3SC(=O)NC3=O)cc2)nc2ccc(Oc3ccc(NC(=O)c4ccc(F)cc4F)cc3)cc21 (centres unmarked) [Example 57, 2,4-Difluoro-N-[4-[2-[4-(2,4-dioxothiazolidin-5-ylmethyl)phenoxymethyl]-1-methyl-1H-benzimidazol-6-yloxy]phenyl]benzamide] | 57.3
CC(C)c1cccc(C(C)C)c1NC(=O)Nc1cccc2ccc(Oc3ccc4nc(COc5ccc(CC6SC(=O)NC6=O)cc5)n(C)c4c3)cc12 (centres unmarked) [Example 40, 1-(2,6-Diisopropylphenyl)-3-[7-[2-[4-(2,4-dioxothiazolidin-5-ylmethyl)phenoxymethyl]-1-methyl-1H-benzimidazol-6yloxy]naphthalen-1-yl)urea] | 59.3
Cn1c(COc2ccc(CC3SC(=O)NC3=O)cc2)nc2ccc(Oc3ccc4cccc(NC(=S)NCc5ccccc5)c4c3)cc21 (centres unmarked) [Example 44, 1-Benzyl-3-(7-[2-[4-(2,4-dioxothiazolidin-5-ylmethyl)phenoxymethyl]-1-methyl-1H-benzimidazol-6-yloxy]naphthalen-1-yl)thiourea] | 47.2
Cn1c(COc2ccc(CC3SC(=O)NC3=O)cc2)nc2ccc(Oc3ccc(NS(C)(=O)=O)cc3)cc21 (centres unmarked) [Example 18, N-(4-[2-[4-(2,4-Dioxothiazolidin-5-ylmethyl)phenoxymethyl]-1-methyl-1H-benzimidazol-6-yloxy]phenyl)methanesulfonamide] | 61
Cn1c(COc2ccc(CC3SC(=O)NC3=O)cc2)nc2ccc(Oc3ccc(CCNC(=O)Cc4cccc(Cl)c4)cc3)cc21 (centres unmarked) [Example 64, 2-(3-Chlorophenyl)-N-[2-[4-[2-[4-(2,4-dioxothiazolidin-5-ylmethyl)phenoxymethyl]-1-methyl-1H-benzimidazol-6-yloxy]phenyl]ethyl]acetamide hydrochloride] | 43.5
CCCCCCN(C(=O)Nc1ccc(F)cc1)c1ccc(Oc2ccc3nc(COc4ccc(CC5SC(=O)NC5=O)cc4)n(C)c3c2)cc1 (centres unmarked) [Example 16, 1-(4-[2-[4-(2,4-Dioxothiazolidin-5-ylmethyl)phenoxymethyl]-1-methyl-1H-benzimidazol-6-yloxy]phenyl)-1-n-hexyl-3-(4-fluorophenyl)urea] | 42.9
Cn1c(COc2ccc(CC3SC(=O)NC3=O)cc2)nc2ccc(Oc3ccc(CCNC(=O)c4cccnc4)cc3)cc21 (centres unmarked) [Example 63, N-[2-[4-[2-[4-(2,4-Dioxothiazolidin-5-ylmethyl)phenoxymethyl]-1-methyl-1H-benzimidazol-6-yloxy]phenyl]ethyl]nicotinamide dihydrochloride] | 55.7
